What was measured:
in vivo [1] = conditions: Swiss outbred, mouse, po, 10 mg/kg
in vivo [2] = conditions: Swiss outbred, mouse, iv, 3 mg/kg
in vivo [3] = conditions: Swiss outbred, mouse, iv, 3 mg/kg; remark: listed apart in the source
physchem = conditions: buffer, pH 7.4
[4] = mouse, in vivo, po, 10 mg/kg, 24 h
in vivo [5] = conditions: Swiss outbred, mouse, iv, 3 mg/kg; remark: listed apart in the source

C=CCn1c(=O)c2cnc(Nc3ccc(N4CCN(C)CC4)cc3)nc2n1-c1cccc(C(C)(C)O)n1 [ADAVOSERTIB]
Cmax at 24 h (in vivo [1]): 26 nM | AUC(0-t) at 24 h (in vivo [2]): 0.21 µM·h | clearance at 24 h (in vivo [3]): 75 mL/min/kg | chromatographic logD (physchem): 3.4 | AUC [4]: 0.067 µM·h | Vd at 24 h (in vivo [5]): 1.27 L/kg
